Values of other authors as cited in article PMC8089043 (Journal of controlled release : official journal of the …, 2021).

What was measured:
[1] = rats, high doses
[2] = in vivo

## CC(C)=CCC[C@]1(C)C=Cc2c(O)c3c(c(CC=C(C)C)c2O1)O[C@]12C(=C[C@@H]4C[C@H]1C(C)(C)O[C@@]2(C/C=C(/C)C(=O)O)C4=O)C3=O [GA, gambogic acid]
[1]
  dose exhibiting hepatic and renal toxicities: > 120 mg/kg

## O=c1oc2cc(O)ccc2c2ccc(O)cc12 [UA, urolithin A]
[2]
  safety of diets containing gram quantities: safe
